Literature values, collected in US20100267952A1, “USE OF NOVEL COMPOUND HAVING AFFINITY FOR AMYLOID, AND PROCESS FOR PRODUCTION OF THE SAME” (NIHON MEDI-PHYSICS CO., LTD., priority 2007, published 2010).

Conditions: [11C]-labeled, rats; cited from earlier work

CNc1ccc(/C=C/c2ccc(O)cc2)cc1 [SB-13, (E)-4-methylamino-4′-hydroxystilbene]
clearance from normal tissues: it cannot be said that the clearance is sufficiently fast
